Results published in patent publication US20260272964A1, “PENTAGALLOYL GLUCOSE DERIVED FROM SCHINUS PLANTS AND METHODS OF USE” (Emory University, priority 2020, published 2026).
In brackets after ≈: the same amount, converted by molar mass. Several values for one entry are separate records, joined by “and”; a condition that tells them apart may be missing. Equal values may be shown once. Entries after “also recorded” stand apart in the source; their conditions may differ. Read-outs that look alike come from different tables or passages of the source.

Tests used:
Candida albicans = assay: Growth inhibition of Candida species; assay type: cell-based
Description: (§1) The activity of PGG was tested for growth inhibition against two susceptible strains and 6 drug resistant strains from three Candida species (Table 2). […] The activity of PGG followed a dose-response curve against tested strains. Typically the strains tested had MICs less than 2 μg/mL. Candida glabrata (AR Bank #0335) yielded the highest MIC at 8 μg/mL.

Candida auris = assay: Growth inhibition of Candida species; assay type: cell-based; conditions: Candidozyma auris
Description: as §1

Candida glabrata = assay: Growth inhibition of Candida species; assay type: cell-based
Description: as §1

Candida parapsilosis = assay: Growth inhibition of Candida species; assay type: cell-based; conditions: Lodderomyces parapsilosis
Description: as §1

Candida tropicalis = assay: Growth inhibition of Candida species; assay type: cell-based; conditions: Table 2, strain AR Bank #0345
Description: as §1

[1] = Lactate dehydrogenase (LDH) cytotoxicity assay; assay type: cell-based, human; conditions: human; HaCaT, LDH assay
From the text: (§2) Immortalized human keratinocyte cells (HaCaTs) were used in a lactate dehydrogenase (LDH) assay to assess cytotoxicity by PGG and its parents.

[2] = test system: Immortalized human keratinocyte cells (HaCaTs); assay: Lactate dehydrogenase (LDH) cytotoxicity assay; assay type: cell-based; conditions: HaCaT IC50 over median IC50 for growth inhibition of A. baumannii
From the text: as §2

A. baumannii AB5075 [3] = assay: Biofilm formation inhibition and biofilm eradication; assay type: cell-based, Acinetobacter baumannii
From the text: However, there was no significant difference between PGG and control with regards to biofilm promotion or inhibition at any concentration tested and no dose-response trend was noted.

A. baumannii [4] = assay: Growth inhibition assays with media supplementation; assay type: cell-based, Acinetobacter baumannii
Description: (§3) PGG antibacterial activity may be attributed to its chelation of iron. One can use a colorimetric assay to quantify binding of free iron by PGG. One can perform bioassays with iron supplementation and 2,2′-dipyridyl, a known iron chelator, as a control. To elucidate potential mechanisms of action of PGG, A. baumannii growth inhibition and time-kill assays were carried out with various supplements in combination with PGG: 0.02% oleic acid, 0.02% polysorbate 80, 1 mM iron (II) sulfate, and 1 mM iron (III) sulfate. […] Furthermore, PGG combined with oleic acid, polysorbate 80, and iron (II) sulfate treatments had roughly tenfold, 100-fold, and 1,000-fold higher CFU/mL measurements, respectively, than PGG alone at the 24 h timepoint.

A. baumannii [5] = assay: Time-kill assays with and without supplements; assay type: cell-based, Acinetobacter baumannii
Description: as §3

A. baumannii AB5075 [6] = assay: Resistance studies (agar plates and 21-day serial passaging); assay type: cell-based, Acinetobacter baumannii
Description: To test for spontaneous development of resistance to PGG, A. baumannii AB5075 was inoculated on agar plates containing PGG at 0.5×MIC, 1×MIC, and 2×MIC (128, 256, and 512 μg/mL, respectively), and a control plate containing no PGG. […] Next, evolution of resistance was tested by serial passaging A. baumannii AB5075 for 21 days in the presence of a PGG gradient, using culture from the 0.5×MIC treatment for each subsequent passage. Serial passaging with a tetracycline gradient served as a control.

Candida species = assay: Growth inhibition of a panel of Candida strains; assay type: cell-based
Description: as §1

ESKAPE pathogens = assay: Growth inhibition of a panel of ESKAPE pathogens (overall); assay type: cell-based
Description: PGG was also tested against a panel of other ESKAPE pathogens: Enterococcus faecium, Staphylococcus aureus, Klebsiella pneumoniae, Pseudomonas aeruginosa, and Enterobacter cloacae.

[7] = in vivo; cited from earlier work

## O=C(OC[C@H]1O[C@@H](OC(=O)c2cc(O)c(O)c(O)c2)[C@H](OC(=O)c2cc(O)c(O)c(O)c2)[C@@H](OC(=O)c2cc(O)c(O)c(O)c2)[C@@H]1OC(=O)c1cc(O)c(O)c(O)c1)c1cc(O)c(O)c(O)c1 [PGG, [(2R,3R,4S,5R,6S)-3,4,5,6-tetrakis[(3,4,5-trihydroxybenzoyl)oxy]oxan-2-yl]methyl 3,4,5-trihydroxybenzoate]
Candida albicans; Candida albicans, Table 2, strain ARMH12 (Flc^R)
  IC50: 0.5 µg/mL (≈ 0.532 µM)
Candida albicans; Candida albicans, Table 2, strain ARMH12 (Flc^R), read-out: MIC
  MIC: 1 µg/mL (≈ 1.06 µM)
Candida albicans; Candida albicans, Table 2, strain ATCC10231
  IC50: 0.25 µg/mL (≈ 0.266 µM)
Candida albicans; Candida albicans, Table 2, strain ATCC10231, read-out: MIC
  MIC: 0.5 µg/mL (≈ 0.532 µM)
Candida albicans; Candida albicans, Table 3, strain ATCC90028
  IC50: 1 µg/mL (≈ 1.06 µM)
Candida albicans; Candida albicans, Table 3, strain ATCC90028, read-out: MIC
  MIC: 2 µg/mL (≈ 2.13 µM)
Candida albicans; Table 3, strain MH12
  MIC: 1.0 µg/mL (≈ 1.06 µM)
Candida auris; Table 2, strain AR Bank #0390
  MIC: 0.25 µg/mL (≈ 0.266 µM)
Candida auris; Table 2, strain AR Bank #0381
  IC50: 0.25 µg/mL (≈ 0.266 µM)
  MIC: 0.5 µg/mL (≈ 0.532 µM)
Candida glabrata; Nakaseomyces glabratus, Table 2, strain AR Bank #0325
  IC50: 0.5 µg/mL (≈ 0.532 µM)
Candida glabrata; Nakaseomyces glabratus, Table 2, strain AR Bank #0325, read-out: MIC
  MIC: 1 µg/mL (≈ 1.06 µM)
Candida glabrata; Nakaseomyces glabratus, Table 3, strain AR Bank #0325
  IC50: 0.5 µg/mL (≈ 0.532 µM)
Candida glabrata; Nakaseomyces glabratus, Table 3, strain AR Bank #0325, read-out: MIC
  MIC: 1 µg/mL (≈ 1.06 µM)
Candida glabrata; Nakaseomyces glabratus, Table 3, strain AR Bank #0326
  IC50: 0.25 µg/mL (≈ 0.266 µM)
Candida glabrata; Nakaseomyces glabratus, Table 3, strain AR Bank #0326, read-out: MIC
  MIC: 0.5 µg/mL (≈ 0.532 µM)
Candida glabrata; Nakaseomyces glabratus, Table 3, strain AR Bank #0335
  IC50: 2 µg/mL (≈ 2.13 µM)
Candida glabrata; Nakaseomyces glabratus, Table 3, strain AR Bank #0335, read-out: MIC
  MIC: 8 µg/mL (≈ 8.5 µM)
Candida glabrata; Table 3, strain AR Bank #0335
  MIC: 8.0 µg/mL (≈ 8.5 µM)
Candida parapsilosis; Table 2, strain AR Bank #0337
  IC50: 0.5 µg/mL (≈ 0.532 µM)
  MIC: 1 µg/mL (≈ 1.06 µM)
Candida parapsilosis; Table 3, strain AR Bank #0337
  IC50: 1 µg/mL (≈ 1.06 µM)
  MIC: 1 µg/mL (≈ 1.06 µM)
Candida parapsilosis; Table 3, strain AR Bank #0338
  IC50: 0.5 µg/mL (≈ 0.532 µM)
  MIC: 1 µg/mL (≈ 1.06 µM)
Candida parapsilosis; Table 3, strain AR Bank #0339
  IC50: 1 µg/mL (≈ 1.06 µM)
  MIC: 2 µg/mL (≈ 2.13 µM)
Candida tropicalis
  IC50: 0.25 µg/mL (≈ 0.266 µM)
  MIC: 1 µg/mL (≈ 1.06 µM)
[1]
  IC50: 256 µg/mL (≈ 272 µM)
[2]
  therapeutic index: 32
A. baumannii AB5075 [3]; AB5075, 0.5-64 μg/mL (sub-MIC)
  biofilm formation inhibition: did not exhibit any antibiofilm activity
A. baumannii AB5075 [3]; AB5075, 2-256 μg/mL
  biofilm eradication: did not exhibit any antibiofilm activity
A. baumannii AB5075 [3]; AB5075, 8-64 μg/mL, not significant
  biofilm formation relative to vehicle (DMSO) control: mild promotion of biofilm formation
A. baumannii [4]; PGG 256-2 μg/mL with 1 mM iron (II) sulfate
  change of growth inhibition on supplementation: attenuated growth inhibition
A. baumannii [4]; PGG 256-2 μg/mL with 1 mM iron (III) sulfate
  change of growth inhibition on supplementation: attenuated growth inhibition
A. baumannii [4]; PGG 256-2 μg/mL with 0.02% oleic acid
  change of growth inhibition on supplementation: no change in activity
A. baumannii [4]; PGG 256-2 μg/mL with 0.02% polysorbate 80
  change of growth inhibition on supplementation: attenuated growth inhibition
A. baumannii [5]; PGG alone, 256 μg/mL
  kind of activity in time-kill (CFU/mL curve): bacteriostatic rather than bactericidal
A. baumannii [5]; PGG combined with iron (II) sulfate, 24 h timepoint
  CFU/mL relative to PGG alone: ~1,000 fold
A. baumannii [5]; PGG combined with oleic acid, 24 h timepoint
  CFU/mL relative to PGG alone: roughly tenfold
A. baumannii [5]; PGG combined with polysorbate 80, 24 h timepoint
  CFU/mL relative to PGG alone: ~100 fold
A. baumannii AB5075 [6]; A. baumannii AB5075, 21 daily passages from the 0.5×MIC treatment
  evolution of resistance on serial passaging: did not produce any resistant mutants; also recorded: remained stable; also recorded: did not stimulate any spontaneous resistance
A. baumannii AB5075 [6]; A. baumannii AB5075, agar with 128, 256 and 512 μg/mL, 24 h
  spontaneous development of resistance (colonies on agar plates): no colonies appeared
A. baumannii AB5075 [6]; Acinetobacter baumannii, AB5075, read-out: Base MIC
  MIC: 256 µg/mL (≈ 272 µM)
Candida species; Candida strains tested, read-out: MICs typical of the strains tested
  MIC: < 2 µg/mL
Candida species; two susceptible and 6 drug resistant strains from three Candida species, read-out: IC50 values, range over strains
  IC50: 0.25 µg/mL to 2 µg/mL and 260 nM to 2.1 µM
ESKAPE pathogens
  concentrations with activity against a wide range of pathogenic bacteria: ≥ 64 µg/mL
[7]
  oral bioavailability: low oral bioavailability
